# Assay results as given in ChEMBL document CHEMBL1132615, “Structure--activity relationships of lysophosphatidic acid: conformationally restricted backbone mimetics” (J Med Chem, 1999).
# Assays:
# [1] = Relative potency was evaluated for its ability to mobilize intracellular calcium in MDA MB231 cells.*did not reach a maximal response at the highest concentration used; format: functional, cell-based; details: Homo sapiens, MDA-MB-231
# [2] = Relative potency was evaluated for its ability to mobilize intracellular calcium in MDA MB231 cells.; format: functional, cell-based; details: Homo sapiens, MDA-MB-231
Compound,EC50 [1],EC50 [2]
"CCCCCCCC/C=C\CCCCCCCC(=O)OCC(O)COP(=O)(O)O (single isomer, unassigned) [LYSOPHOSPHATIDIC ACID]",–,5 nM
CCCCCC/C=C\CCCCCCCC(=O)Oc1cccc(OP(=O)(O)O)c1,850 nM,–
CCCCCCCCCCCC(=O)Oc1ccc(C(=O)c2ccc(OP(=O)(O)O)cc2)cc1,4710 nM,–
CCCCCCCC/C=C\CCCCCCCC(=O)NCCOP(=O)(O)O,3 nM,–
CCCCCCCC(=O)Oc1ccc(C(=O)c2ccc(OP(=O)(O)O)cc2)cc1,> 500000 nM,–
CCCCCCCCCC(=O)Oc1ccc(C(=O)c2ccc(OP(=O)(O)O)cc2)cc1,> 500000 nM,–

# More lines, now with the values ahead:
EC50 [1],EC50 [2],Compound
1560 nM,–,CCCCCCCCCCCCCCCC(=O)Nc1ccc(OP(=O)(O)O)cc1
1990 nM,–,CCCCCCCCCCCCCC(=O)Oc1ccc(C(=O)c2ccc(OP(=O)(O)O)cc2)cc1
–,460 nM,CCCCCCCCCCCCCCCC(=O)Nc1cccc(OP(=O)(O)O)c1
–,460 nM,CCCCCC/C=C\CCCCCCCC(=O)Nc1cccc(OP(=O)(O)O)c1
–,310 nM,CCCCCCCCCCCCCCCC(=O)Oc1cccc(OP(=O)(O)O)c1
–,1830 nM,CCCCCC/C=C\CCCCCCCC(=O)Nc1ccc(OP(=O)(O)O)cc1
